In ChEMBL document CHEMBL4392847, “Inhibition of pre-miRNA-136 processing by Dicer with small molecule BzDANP suggested the formation of ternary complex of pre-miR-136-BzDANP-Dicer” (Bioorg Med Chem, 2019):
Calls of active or inactive are those of the source. The rule behind the calls is not given here.

Assays:
[1] = Binding affinity to pre-miR-136 RNA delta-C-bulge mutant (unknown origin) at 0.063 to 1 uM by SPR assay
[2] = Binding affinity to pre-miR-136 RNA hairpin mutant (unknown origin) at 0.063 to 1 uM by SPR assay
[3] = Binding affinity to pre-miR-136 RNA delta-internal loop mutant (unknown origin) at 0.063 to 1 uM by SPR assay
[4] = test system: pre-microRNA 136; assay: Binding affinity to pre-miR-136 RNA (unknown origin) at 0.063 to 1 uM by SPR assay; format: nucleic-acid assay
[5] = test system: pre-microRNA 136; assay: Binding affinity to hairpin loop site of pre-miR-136 RNA (unknown origin) at RNA to compound molar ratio of 1:0 by NMR titration assay; format: nucleic-acid assay
[6] = test system: pre-microRNA 136; assay: Binding affinity to C-bulge site of pre-miR-136 RNA (unknown origin) at RNA to compound molar ratio of 1:0 by NMR titration assay; format: nucleic-acid assay
[7] = Binding affinity to pre-miR-136 RNA delta-C-bulge mutant (unknown origin) at <0.5 uM by SPR assay
[8] = (§1) Binding affinity to pre-miR-136 RNA delta-C-bulge mutant (unknown origin) assessed as reduction in human recombinant Dicer-mediated substrate cleavage by measuring cleavage efficiency at 200 uM incubated for 30 mins using 32P-labeled RNA by denaturing polyacrylamide gel electrophoresis method (reference value: 89.1 +/- 2.3%); parameters: scale not given: the % may be the effect or the level left
[9] = as §1, with “hairpin” for “delta-C-bulge”, “59.1” for “89.1”, “2.4%)” for “2.3%)”; parameters: scale not given: the % may be the effect or the level left
[10] = test system: pre-microRNA 136; assay: Binding affinity to pre-miR-136 RNA (unknown origin) assessed as reduction in Km(app) for human recombinant Dicer-mediated substrate cleavage at 100 uM incubated for 30 mins using 32P-labeled RNA by denaturing polyacrylamide gel electrophoresis method; format: nucleic-acid assay
[11] = Binding affinity to pre-miR-136 RNA delta-C-bulge mutant (unknown origin) assessed as normalized equilibrium binding response (Req) value at 1 uM by SPR assay relative to control
[12] = as §1, with “delta-internal loop” for “delta-C-bulge”, “94.5” for “89.1”, “1.4%)” for “2.3%)”; parameters: scale not given: the % may be the effect or the level left
[13] = Binding affinity to pre-miR-136 RNA hairpin mutant (unknown origin) at <0.5 uM by SPR assay
[14] = Binding affinity to pre-miR-136 RNA delta-internal loop mutant (unknown origin) assessed as normalized equilibrium binding response (Req) value at 1 uM by SPR assay relative to control
[15] = test system: pre-microRNA 136; assay: Binding affinity to pre-miR-136 RNA (unknown origin) at 63 nM by SPR assay; format: nucleic-acid assay
[16] = test system: pre-microRNA 136; assay: Binding affinity to pre-miR-136 RNA (unknown origin) assessed as normalized equilibrium binding response (Req) value at 1 uM by SPR assay relative to control; format: nucleic-acid assay
[17] = test system: pre-microRNA 136; assay: Binding affinity to pre-miR-136 RNA (unknown origin) assessed as reduction in initial velocity of human recombinant Dicer-mediated substrate cleavage at 100 uM incubated for 30 mins using 32P-labeled RNA by denaturing polyacrylamide gel electrophoresis method; format: nucleic-acid assay
[18] = test system: pre-microRNA 136; assay: Binding affinity to internal loop site of pre-miR-136 RNA (unknown origin) at RNA to compound molar ratio of 1:0 by NMR titration assay; format: nucleic-acid assay
[19] = test system: pre-microRNA 136; assay: Binding affinity to pre-miR-136 RNA (unknown origin) assessed as reduction in Vmax(app) for human recombinant Dicer-mediated substrate cleavage at 100 uM incubated for 30 mins using 32P-labeled RNA by denaturing polyacrylamide gel electrophoresis method; format: nucleic-acid assay
[20] = test system: pre-microRNA 136; assay: as §1, with “RNA” for “RNA delta-C-bulge mutant”, “94.3” for “89.1”; format: nucleic-acid assay; parameters: scale not given: the % may be the effect or the level left
[21] = test system: pre-microRNA 136; assay: Binding affinity to pre-miR-136 RNA (unknown origin) assessed as reduction in human recombinant Dicer-mediated substrate cleavage incubated for 30 mins using 32P-labeled RNA by denaturing polyacrylamide gel electrophoresis method; format: nucleic-acid assay

Nc1ccc2ccc(N)nc2n1
Kd [1]: Not Active
Kd [2]: Not Active
Kd [3]: Not Active
Kd [4]: Not Active

NCCCNc1ccc2c(n1)nc(NCCCN)c1ccccc12
Activity [5]: inactive
Activity [6]: Active
Activity [7]: inactive
Kd ([1]; read-out: Kd): 3200 µM
Activity [8]: 80.5%
Activity [9]: 58.2%
Km [10]: 0.0279 µM
Activity [11]: 1.73 RU
Kd ([2]; read-out: Kd): 65000 µM
Activity [12]: 80.6%
Kd ([3]; read-out: Kd): 0.45 µM
Kd ([4]; read-out: Kd): 0.47 µM
Activity [13]: inactive
Activity [14]: 4.73 RU
Activity [15]: Active
Activity [16]: 4.32 RU
Activity [17]: Active
Activity [18]: inactive
Vmax(app) [19]: 0.38 nM/min
Activity [20]: 71.9%
Activity [21]: Dose-dependent effect
